# In patent US7414041B2 (Trustees Of Tufts College, priority 1991, dated 2008):
# Where two headings read alike, the source gives them in different places.
# Experiments:
# [1] = target: T1, TET proteins responsible for tetracycline efflux (Class B tetracycline resistance determinant, strain D1-209) (Escherichia coli, UniProt P02980); assay: biochemical; set-up: species or system E. coli
# T1 construct: Everted vesicles, to which the TET proteins responsible for tetracycline efflux are attached; endogenous in cells; host or cells: E. coli strain D1-209 (everted membrane vesicles)
# T1 sequence (P02980 whole entry): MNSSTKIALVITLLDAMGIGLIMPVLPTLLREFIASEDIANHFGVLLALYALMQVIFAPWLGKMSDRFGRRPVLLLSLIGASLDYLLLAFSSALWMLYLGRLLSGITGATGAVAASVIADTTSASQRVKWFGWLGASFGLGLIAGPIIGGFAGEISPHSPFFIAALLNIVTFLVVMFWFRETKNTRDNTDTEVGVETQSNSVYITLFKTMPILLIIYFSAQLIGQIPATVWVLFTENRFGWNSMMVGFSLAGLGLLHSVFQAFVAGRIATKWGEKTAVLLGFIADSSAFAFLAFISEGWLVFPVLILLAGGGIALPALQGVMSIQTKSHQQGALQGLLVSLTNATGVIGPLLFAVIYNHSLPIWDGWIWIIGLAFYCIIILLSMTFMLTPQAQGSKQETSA
# [2] = test system: E. coli ML308; assay: MIC of tetracycline susceptible strains, C5 esters; type: cell-based; settings: Escherichia coli; E. coli ML308, alone; read-out: MIC
# [3] = test system: S. aureus 450; assay: MIC of tetracycline susceptible strains, C5 esters; type: cell-based; settings: Staphylococcus aureus; S. aureus 450, alone; read-out: MIC
# [4] = test system: E. faecalis ATCC 9790; assay: MIC of tetracycline susceptible strains, C5 esters; type: cell-based; settings: Enterococcus faecalis, ATCC9790; E. faecalis ATCC 9790, alone; read-out: MIC
# [5] = test system: E. coli D1-299 (Tet A); type: cell-based; settings: for MIC/MLC chart symbol: Chart 6A, doxy = number in box (line above), listed as H analog alone;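 for all read-outs here: E. coli at roughly 5×10^5 cells/ml in L broth, analog and doxycycline alone or mixed in two-fold dilutions from 50 to under 1 µg/ml, 18 h at 37 °C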
# [6] = test system: S. aureus 4250 (Tet K); assay: MIC/MLC chart, analog with and without doxycycline; type: cell-based; settings: for MIC/MLC chart symbol: Chart 6B, doxy = number in box (line above), listed as H analog alone
# [7] = test system: E. faecalis 158 (Tet L); assay: MIC/MLC chart, analog with and without doxycycline; type: cell-based; settings: Chart 6C, doxy = number in box (line above), listed as H analog alone
# [8] = test system: E. faecalis 211 (Tet M); assay: MIC/MLC chart, analog with and without doxycycline; type: cell-based; settings: for MIC/MLC chart symbol: Chart 6D, doxy = number in box (line above), listed as H analog alone;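 for all read-outs here: broth checkerboard of two-fold drug dilutions, alone and mixed with doxycycline, bacteria near 5×10^5 cells/ml, 18 h incubation at 37 °C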
# [9] = analog .195 μg/ml + doxycycline 1.56 μg/ml
# [10] = analog .195 μg/ml + doxycycline 3.12 μg/ml
# [11] = analog .195 μg/ml + doxycycline 6.25 μg/ml
# [12] = analog .39 μg/ml + doxycycline 1.56 μg/ml
# [13] = analog .39 μg/ml + doxycycline 3.12 μg/ml
# [14] = analog alone .195 μg/ml (Analog Control)
# [15] = analog alone .39 μg/ml (Analog Control)
smiles,measurement,setting,value
"C=C1c2cccc(O)c2C(=O)C2=C(O)C3(O)C(=O)C(C(N)=O)=C(O)C(N(C)C)C3C(OC(=O)CC)C12 (centres unmarked) [Cmpd 2, 5 proprionate methacycline]",IC50,[1],0.2 µM
same,MIC,[2],10 µg/mL
same,MIC,[3],1.3 µg/mL
same,MIC,[4],0.8 µg/mL
same,MIC/MLC chart symbol,[5]; analog 1.56 μg/ml,+
same,MIC/MLC chart symbol,[5]; analog 3.12 μg/ml,+
same,MIC/MLC chart symbol,"[5]; analog 3.12 μg/ml, listed as 5-proprionate methacycline",◯
same,MIC/MLC chart symbol,[5]; analog 6.25 μg/ml,+
same,MIC/MLC chart symbol,"[5]; analog 6.25 μg/ml, listed as 5-proprionate methacycline",◯
same,MIC/MLC chart symbol,[5]; analog 12.5 μg/ml,+
same,MIC/MLC chart symbol,[5]; analog 25 μg/ml,+
same,MIC/MLC chart symbol,"[5]; analog 25 μg/ml, listed as 5-proprionate methacycline",◯
same,MIC/MLC chart symbol,[5]; analog .195 μg/ml,+
same,MIC/MLC chart symbol,[5]; analog .39 μg/ml,+
same,MIC/MLC chart symbol,[5]; analog .78 μg/ml,+
same,MIC/MLC chart symbol,[6]; analog 1.56 μg/ml,↓ and ◯ and +
same,MIC/MLC chart symbol,[6]; analog .195 μg/ml,↓ and +
same,MIC/MLC chart symbol,[6]; analog .39 μg/ml,↓ and +
same,MIC/MLC chart symbol,[6]; analog .78 μg/ml,◯ and +
same,MIC in combination,[6]; with 1.55 μg/ml doxycycline (Chart 6B),1.56 µg/mL
same,MIC in combination,[6]; with 6.23 μg/ml doxycycline (Chart 6B),0.78 µg/mL
same,MIC/MLC chart symbol,[7]; analog 1.56 μg/ml,↓ and ◯
same,MIC/MLC chart symbol,[7]; analog .195 μg/ml,◯ and +
same,MIC/MLC chart symbol,[7]; analog .39 μg/ml,◯ and +
same,MIC/MLC chart symbol,[7]; analog .78 μg/ml,◯ and +
same,MIC/MLC chart symbol,[8]; analog 1.56 μg/ml,◯ and +
same,MIC/MLC chart symbol,[8]; analog 3.12 μg/ml,+
same,MIC/MLC chart symbol,[8]; analog 6.25 μg/ml,↓ and +
same,MIC/MLC chart symbol,[8]; analog .195 μg/ml,+
same,MIC/MLC chart symbol,[8]; analog .39 μg/ml,+
same,MIC/MLC chart symbol,[8]; analog .78 μg/ml,+
"CCC(=O)OC1C2C(=C(O)C3(O)C(=O)C(C(N)=O)=C(O)C(N(C)C)C13)C(=O)c1c(O)cccc1C2CSC1CCCC1 (centres unmarked) [Cmpd 5, 13-cyclopentylthio-5-proprionate-6-deoxy tetracycline]",IC50,[1],3.3 µM
same,MIC,[2],20 µg/mL
same,MIC,[3],0.4 µg/mL
same,MIC,[4],0.4 µg/mL
same,MIC/MLC chart: growth or killing,[5]; analog 1.56 μg/ml + doxycycline 1.55 μg/ml,+
same,MIC/MLC chart: growth or killing,[5]; analog 1.56 μg/ml + doxycycline 3.1 μg/ml,+
same,MIC/MLC chart: growth or killing,[5]; analog 1.56 μg/ml + doxycycline 6.2 μg/ml,+
same,MIC/MLC chart: growth or killing,[5]; analog 3.12 μg/ml + doxycycline 1.53 μg/ml,+
same,MIC/MLC chart: growth or killing,[5]; analog 3.12 μg/ml + doxycycline 3.05 μg/ml,+
same,MIC/MLC chart: growth or killing,[5]; analog 3.12 μg/ml + doxycycline 6.1 μg/ml,+
same,MIC/MLC chart: growth or killing,[5]; analog 6.25 μg/ml + doxycycline 3.0 μg/ml,+
same,MIC/MLC chart: growth or killing,[5]; analog 6.25 μg/ml + doxycycline […],+
same,MIC/MLC chart: growth or killing,[5]; analog 12.5 μg/ml + doxycycline 2.8 μg/ml,+
same,MIC/MLC chart: growth or killing,[5]; analog 12.5 μg/ml + doxycycline […],+
same,MIC/MLC chart: growth or killing,[5]; analog 25 μg/ml + doxycycline 2.4 μg/ml,+
same,MIC/MLC chart: growth or killing,[5]; analog 25 μg/ml + doxycycline […],+
same,MIC/MLC chart: growth or killing,[5]; analog 50 μg/ml + doxycycline 1.56 μg/ml,+
same,MIC/MLC chart: growth or killing,[5]; analog 50 μg/ml + doxycycline .78 μg/ml,+
same,MIC/MLC chart: growth or killing,[5]; [9],+
same,MIC/MLC chart: growth or killing,[5]; [10],+
same,MIC/MLC chart: growth or killing,[5]; [11],+
same,MIC/MLC chart: growth or killing,[5]; analog .195 μg/ml + doxycycline 12.5 μg/ml,+
same,MIC/MLC chart: growth or killing,[5]; analog .195 μg/ml + doxycycline 25.0 μg/ml,+
same,MIC/MLC chart: growth or killing,[5]; [12],+
same,MIC/MLC chart: growth or killing,[5]; [13],+
same,MIC/MLC chart: growth or killing,[5]; analog .39 μg/ml + doxycycline 6.25 μg/ml,+
same,MIC/MLC chart: growth or killing,[5]; analog .39 μg/ml + doxycycline 12.5 μg/ml,+
same,MIC/MLC chart: growth or killing,[5]; analog .39 μg/ml + doxycycline 24.9 μg/ml,↓
same,MIC/MLC chart: growth or killing,[5]; analog .78 μg/ml + doxycycline 1.56 μg/ml,+
same,MIC/MLC chart: growth or killing,[5]; analog .78 μg/ml + doxycycline 3.12 μg/ml,+
same,MIC/MLC chart: growth or killing,[5]; analog .78 μg/ml + doxycycline 6.23 μg/ml,+
same,MIC/MLC chart: growth or killing,[5]; analog .78 μg/ml + doxycycline 12.4 μg/ml,◯
same,MIC/MLC chart: growth or killing,[5]; analog alone 1.56 μg/ml (Analog Control),+
same,MIC/MLC chart: growth or killing,[5]; analog alone 3.12 μg/ml (Analog Control),+
same,MIC/MLC chart: growth or killing,[5]; analog alone 6.25 μg/ml (Analog Control),+
same,MIC/MLC chart: growth or killing,[5]; analog alone 12.5 μg/ml (Analog Control),+
same,MIC/MLC chart: growth or killing,[5]; analog alone 25.0 μg/ml (Analog Control),+
same,MIC/MLC chart: growth or killing,[5]; analog alone 50.00 μg/ml (Analog Control),+
same,MIC/MLC chart: growth or killing,[5]; [14],+
same,MIC/MLC chart: growth or killing,[5]; [15],+
same,MIC/MLC chart: growth or killing,[5]; analog alone .78 μg/ml (Analog Control),+
same,MLC in combination,[5]; with 5.9 μg/ml doxycycline (Chart 8A),6.25 µg/mL
same,MIC/MLC chart: growth or killing,[8]; [9],+
same,MIC/MLC chart: growth or killing,[8]; [10],+
same,MIC/MLC chart: growth or killing,[8]; [11],+
same,MIC/MLC chart: growth or killing,[8]; [12],◯
same,MIC/MLC chart: growth or killing,[8]; [13],◯
same,MIC/MLC chart: growth or killing,[8]; [14],+
same,MIC/MLC chart: growth or killing,[8]; [15],◯
